What all share (format): cell-based
For test [1], the target named is T1, human muscarinic M1 receptor (Homo sapiens, UniProt P11229).
T1 sequence (P11229 1-460): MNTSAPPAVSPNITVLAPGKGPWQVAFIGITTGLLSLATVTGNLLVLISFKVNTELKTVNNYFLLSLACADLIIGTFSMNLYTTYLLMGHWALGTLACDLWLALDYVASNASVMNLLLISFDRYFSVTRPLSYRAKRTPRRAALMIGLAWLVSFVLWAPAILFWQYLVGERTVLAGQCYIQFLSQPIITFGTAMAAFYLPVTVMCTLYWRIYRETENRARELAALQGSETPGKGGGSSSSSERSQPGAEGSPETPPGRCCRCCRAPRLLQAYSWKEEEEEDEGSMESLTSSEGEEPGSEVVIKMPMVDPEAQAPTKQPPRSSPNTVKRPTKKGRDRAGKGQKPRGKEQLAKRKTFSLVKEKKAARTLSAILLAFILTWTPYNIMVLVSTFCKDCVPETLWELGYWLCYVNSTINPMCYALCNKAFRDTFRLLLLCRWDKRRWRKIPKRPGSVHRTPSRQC
The test can be described thus: Alphascreen Surefire phospho-ERK1/2 functional assay, M1. The note with it: for EC50: CHO cells stably expressing human M1, phospho-ERK1/2, read-out: pEC50 M1 (converted); for Emax: CHO, read-out: M1 % Emax cf. ACh, CHO cells stably expressing human M1, Emax relative to ACh. The essentials:
(§1)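 The assay used ERK1/2 phosphorylation as a common downstream read-out of Gq/11 and Gi/o receptor activation. CHO cells expressing each human receptor were exposed to agonist for five minutes at 37 °C after overnight serum starvation. Potency (pEC50) and maximal effect (Emax) came from the AlphaScreen signal.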
On the technique in general: Alpha assays give light when donor and acceptor beads are brought close together.

The target of test [2] is T2, human muscarinic M2 receptor (Homo sapiens, UniProt P08172).
T2 sequence (P08172 1-466): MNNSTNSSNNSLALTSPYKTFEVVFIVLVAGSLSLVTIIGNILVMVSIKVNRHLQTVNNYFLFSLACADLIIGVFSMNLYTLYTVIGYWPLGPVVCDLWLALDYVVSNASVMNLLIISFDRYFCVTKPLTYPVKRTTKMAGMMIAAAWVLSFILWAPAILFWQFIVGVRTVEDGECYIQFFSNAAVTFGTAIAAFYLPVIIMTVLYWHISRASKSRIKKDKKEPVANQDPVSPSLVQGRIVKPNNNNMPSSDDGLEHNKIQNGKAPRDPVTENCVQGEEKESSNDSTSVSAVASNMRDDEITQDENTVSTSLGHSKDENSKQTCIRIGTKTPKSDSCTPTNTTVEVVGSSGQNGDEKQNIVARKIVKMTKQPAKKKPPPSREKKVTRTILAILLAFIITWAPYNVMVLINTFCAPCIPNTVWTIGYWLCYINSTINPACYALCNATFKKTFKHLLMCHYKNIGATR
As to the kind of experiment: Alphascreen Surefire phospho-ERK1/2 functional assay, M2. Conditions: for EC50: CHO cells stably expressing human M2, phospho-ERK1/2, read-out: pEC50 M2 (converted); for Emax: CHO, read-out: M2 % Emax cf. ACh. Put shortly: as §1

Test [3] concerns the target T3, human muscarinic M3 receptor (Homo sapiens, UniProt P20309).
T3 construct: expressed in transfected cells
As to the kind of experiment: Alphascreen Surefire phospho-ERK1/2 functional assay, M3. The note with it: for EC50: CHO cells stably expressing human M3, phospho-ERK1/2, read-out: pEC50 M3 (converted); for Emax: CHO, read-out: M3 % Emax cf. ACh. The essentials: as §1

Test [4] addresses T4, human muscarinic M4 receptor (Homo sapiens, UniProt P08173).
T4 construct: expressed in transfected cells
T4 sequence (P08173 1-479): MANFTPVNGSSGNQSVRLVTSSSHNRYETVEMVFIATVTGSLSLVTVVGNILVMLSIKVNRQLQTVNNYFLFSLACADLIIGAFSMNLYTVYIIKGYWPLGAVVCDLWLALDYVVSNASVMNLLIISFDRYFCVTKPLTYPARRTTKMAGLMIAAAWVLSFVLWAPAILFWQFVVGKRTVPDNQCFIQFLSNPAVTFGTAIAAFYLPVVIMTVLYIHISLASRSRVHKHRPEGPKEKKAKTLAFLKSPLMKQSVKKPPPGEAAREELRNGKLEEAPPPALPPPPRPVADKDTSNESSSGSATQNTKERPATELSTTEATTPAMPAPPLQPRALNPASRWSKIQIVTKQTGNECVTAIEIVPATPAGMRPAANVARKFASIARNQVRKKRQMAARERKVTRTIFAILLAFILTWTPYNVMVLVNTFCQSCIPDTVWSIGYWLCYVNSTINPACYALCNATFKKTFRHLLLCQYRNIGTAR
As to the kind of experiment: Alphascreen Surefire phospho-ERK1/2 functional assay, M4. Conditions: for EC50: CHO cells stably expressing human M4, phospho-ERK1/2, read-out: pEC50 M4 (converted); for Emax: CHO, read-out: M4 % Emax cf. ACh, CHO cells stably expressing human M4, Emax relative to ACh. The essentials:
as §1

T3 sequence (P20309 whole entry): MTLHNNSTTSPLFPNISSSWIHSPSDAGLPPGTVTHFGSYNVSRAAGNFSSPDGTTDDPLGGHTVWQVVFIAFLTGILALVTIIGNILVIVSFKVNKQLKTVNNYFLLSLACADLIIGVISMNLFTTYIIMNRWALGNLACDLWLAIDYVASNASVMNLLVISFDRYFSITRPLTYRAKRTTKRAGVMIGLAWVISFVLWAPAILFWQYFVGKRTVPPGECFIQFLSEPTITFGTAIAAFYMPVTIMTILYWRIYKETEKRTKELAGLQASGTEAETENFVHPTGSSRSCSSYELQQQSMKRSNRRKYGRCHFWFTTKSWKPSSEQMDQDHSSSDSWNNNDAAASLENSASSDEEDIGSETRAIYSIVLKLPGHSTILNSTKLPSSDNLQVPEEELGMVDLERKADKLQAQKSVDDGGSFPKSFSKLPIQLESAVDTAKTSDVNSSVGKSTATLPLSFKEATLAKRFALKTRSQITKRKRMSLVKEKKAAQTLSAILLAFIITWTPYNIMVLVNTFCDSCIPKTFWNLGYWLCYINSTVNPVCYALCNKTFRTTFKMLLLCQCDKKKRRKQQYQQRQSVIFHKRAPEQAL

The term Emax denotes the greatest response seen or fitted, relative to the assay's reference. As for `CCOC(=O)N1CCCN(C2CCC(C#N)(c3ccc(OC)cc3)CC2)CC1` (mixture of isomers) [3-9 mixture of isomers], the EC50 in test [1] is 115 nM; in test [2], > 20000 nM; in test [3] it was > 20000 nM; in test [4], > 20000 nM. For the same molecule, the Emax in test [1] came to 98%; in test [2], 33%; in test [3] it was 0%; in test [4] it was 2%.
For the molecule `N#CC1(c2ccccc2)CCC(N2CCCN(C(=O)OCCF)CC2)CC1` (mixture of isomers) [3-29 mixture of isomers], the EC50 in test [1] is 537 nM; in test [2] it was > 20000 nM; in test [3], > 20000 nM; in test [4], 200 nM. In addition, the Emax in test [1] came to 75%; in test [2], 3%; in test [3] it was 3%; in test [4] it was 68%.
As to `CCOC(=O)N1CCC2(CCN(C3CCC4(CC3)C(=O)Nc3ccccc34)CC2)C1` (single isomer, unassigned) [12-1 isomer 1], the EC50 is 13.8 nM in test [1], > 20000 nM in test [2], > 20000 nM in test [3] and 4.79 nM in test [4]. The Emax was 109% in test [1], 18% in test [2], 1% in test [3] and 82% in test [4].
Turning to `CCOC(=O)N1CCCN(C2CCC(C#N)(c3ccc(C(F)(F)F)cn3)CC2)CC1` (mixture of isomers) [3-21 mixture of isomers], the EC50 is 724 nM in test [1], > 20000 nM in test [2], > 20000 nM in test [3] and > 20000 nM in test [4]. Also, the Emax came out at 90% in test [1], 3% in test [2], 2% in test [3] and 53% in test [4].
As to `CCOC(=O)N[C@H]1CCN(C2CCC3(CC2)C(=O)Nc2ccccc23)C1` (single isomer, unassigned) [2-1 isomer 1], the EC50 in test [1] was 74.1 nM; in test [2], > 20000 nM; in test [3], > 20000 nM; in test [4], > 20000 nM. The Emax in test [1] amounted to 74%; in test [2] it was 2%; in test [3] it was 4%; in test [4], 10%.
As to `COC(=O)N1CCCN(C2CCC(C#N)(c3ccccc3)CC2)CC1` (mixture of isomers) [3-28 mixture of isomers], the EC50 in test [1] is 776 nM; in test [2], > 20000 nM; in test [3], > 20000 nM; in test [4], 245 nM. The maximal effect (Emax) in test [1] was 116%; in test [2], 15%; in test [3] it was 7%; in test [4] it was 91%.
As to `Cc1ccc2c(c1)NC(=O)C21CCC(N2CCC[C@@H](c3nc(C)no3)C2)CC1` (single isomer, unassigned) [22-4 Isomer 1], the EC50 in test [1] was 79.4 nM; in test [2], > 20000 nM; in test [3] it was > 20000 nM; in test [4], 219 nM. In addition, the Emax in test [1] turned out to be 76%; in test [2], 20%; in test [3], 17%; in test [4] it was 39%.
`Cc1noc(C2CC3(CCN(C4CCC(C#N)(c5ccccc5F)CC4)C3)C2)n1` (single isomer, unassigned) [21-2 Isomer 3]: the EC50 is 72.4 nM in test [1], > 20000 nM in test [2], > 20000 nM in test [3] and 61.7 nM in test [4]. Besides, the maximum response (Emax) was 77% in test [1], 16% in test [2], 15% in test [3] and 58% in test [4].
As to `CCOC(=O)N[C@H]1CCN(C2CCC(C#N)(c3ccc(F)cc3)CC2)C1` (single isomer, unassigned) [1-4 Isomer 2], the EC50 is 35.5 nM in test [1], > 20000 nM in test [2], > 20000 nM in test [3] and > 20000 nM in test [4]. The Emax in test [1] turned out to be 98%; in test [2], 3%; in test [3] it was 8%; in test [4] it was 7%.
Consider `CCOC(=O)N1CCCN(C2CCC(c3nc(CC)c(C)[nH]3)CC2)CC1` (single isomer, unassigned) [5-1 Isomer 2], for which the EC50 in test [1] was 66.1 nM; in test [2] it was > 20000 nM; in test [3] it was > 20000 nM; in test [4], 513 nM. Also, the Emax was found to be 115% in test [1], 8% in test [2], 7% in test [3] and 26% in test [4].
`CCOC(=O)N1CCC2CN(C3CCC(C#N)(c4ccccc4)CC3)CC21` (single isomer, unassigned) [15-1 Isomer 2]: the EC50 in test [1] was 155 nM; in test [2], > 20000 nM; in test [3] it was > 20000 nM; in test [4], 145 nM. Also, the maximal response (Emax) in test [1] was 117%; in test [2] it was 14%; in test [3], 6%; in test [4] it was 21%.
As to `CCOC(=O)N[C@H]1CCN(C2CCC(C#N)(c3cccc(F)c3)CC2)C1` (single isomer, unassigned) [1-3 Isomer 2], the EC50 was 30.9 nM in test [1], > 20000 nM in test [2], > 20000 nM in test [3] and > 20000 nM in test [4]. For the same molecule, the Emax in test [1] came to 119%; in test [2] it was 0%; in test [3], 1%; in test [4] it was 13%.

The values are drawn from patent US10759751B2, “Substituted spirocyclohexanes as muscarinic M1 receptor and/or M4 receptor agonists” (Heptares Therapeutics Limited, priority 2016, dated 2020).
